Data: patent US4656178A (priority 1985, dated 1987)
Counter-ions that a name gives are not always drawn. Like-named read-outs stand apart in the source and are kept apart here.

Columns and labels:
[1] = test system: arrhythmia caused by electrical irritation; experiment: arrhythmia caused by electrical irritation of the right auricle and apex of the left ventricle; type: in vivo, dogs and cats
[2] = teratogenicity in pregnant rats; type: in vivo; conditions: 317 pregnant rats, 2,377 feti
cardiac contractions = experiment: strength of cardiac contractions in narcotized rats and guinea pigs; type: in vivo; conditions: intravenous, 0.1, 0.5, 1, 2 mg/kg
Description: To find out a negative inotropic effect on the heart tissue, two series of experiments have been carried out:
(2) the study of the preparation according to the present invention on the strength of cardiac contractions on narcotized (sodium ethaminal, 50-60 mg/kg intraperitoneally) rats and guinea pigs.

allergenic effect = type: in vivo; conditions: 12 guinea pigs and 6 rabbits
[3] = 6-month histological toxicity, rats; type: in vivo; conditions: per os, 1 mg/kg, 6 months
[4] = test system: lethal fibrillation of the heart induced by aconitine; experiment: prevention of lethal fibrillation of the heart induced by aconitine in rats; type: in vivo; conditions: 0.5 and 1 mg/kg
[5] = diuresis and urine of rats; type: in vivo; conditions: 0.5-1 mg/kg
carcinogenicity = type: in vivo; conditions: subcutaneously and per os, 0.5-2 mg/kg, 6 months, observation 2 years
aconitine arrhythmia = type: in vivo, rats
Description: The atrioventricular arrhythmia caused by aconitine is one of the most reliable models for forecasting the efficiency of the antiarrhythmic action of the novel preparation in clinics. The experiments were conducted on both narcotized and non-narcotized animals. The preparation was administered per os, intramuscularly, intraperitoneally and intravenously 5 to 15 minutes prior to or 3-5 minutes after the administration of aconitine.
The antiarrhythmic activity of the pharmaceutical composition according to the present invention upon administration thereof against the background of a developing aconitine arrhythmia (therapeutic effect) was studied on 110 narcotized rats. The preparation was intravenously administered at intervals of 3-6 minutes against the background of the originated arrhythmia.

antiinflammatory effect = type: in vivo; conditions: doses of 1-5 mg/kg
[6] = local anesthetic effect in intact rabbits; type: in vivo
Description: The local anesthetic effect of the preparation was studied on 14 intact rabbits. […] The results of the experiments on determination of the ability of the preparation to cause infiltration anesthesia have shown that 10-15 minutes after intracutaneous administration, to rabbits, of 0.01-0.05% and 0.1% solutions of the preparation anesthesia occurs which is characterized by an increased threshold of a pain irritation; the duration of the effect is 20 to 48 hours. Under the same conditions of the experiment, the local anesthetic effect of a 0.5% solution of novocaine lasts for 90 minutes on the average.

[7] = long-time administration, histological analysis of inner organs; type: in vivo, laboratory animals (dogs, rabbits, rats); conditions: 10 mg/kg
[8] = test system: cardiac conductive system; type: in vivo, narcotized rats, cats, intact rabbits and dogs
Excerpt: To investigate the character of the effect produced on the functions of the cardiac conductive system by the preparation according to the present invention, the ECG changes appearing in narcotized rats, cats, intact rabbits and dogs under the action of the preparation of this invention were studied. […] The effect of the preparation is retained for a long time.

[9] = 6-month histological toxicity, dogs; type: in vivo; conditions: per os, 1 and 5 mg/kg, 6 months
[10] = test system: calcium channels of the membrane of neurons; experiment: ion currents through the somatic membrane of mollusc neurons: calcium channels; type: cell-based, mollusca
Excerpt: The study of the effect produced by the preparation of the present invention on ion currents through the somatic membrane of neurons has shown that it selectively interacts with calcium and potassium channels of the membrane of neurons of mollusca, whereby the currents along these channels are suppressed.

[11] = test system: cardiac arrhythmia induced by barium chloride; experiment: cardiac arrhythmia induced by barium chloride; type: in vivo, narcotized rats and intact rabbits; conditions: 0.1 mg/kg, injected 10 minutes prior to barium
Description: The study of the antiarrhythmic activity of the preparation according to the present invention on a model of cardiac arrhythmia induced by barium chloride was carried out on 56 narcotized rats and 16 intact rabbits. The preparation of the present invention in the dose of 0.1 mg/kg injected 10 minutes prior to administration of barium prevented the development of arrhythmia in 86.6% of the animals.

[12] = test system: arrhythmia induced by adrenalin; experiment: arrhythmia induced by adrenalin in dogs with ligated coronary artery; type: in vivo; conditions: 0.1-0.2 mg/kg
[13] = test system: cardiac rhythm disturbances; experiment: clinical study in patients with cardiac rhythm disturbances; type: in vivo, human
Description: The clinical study of the preparation according to the present invention was carried out on 200 patients suffering from various diseases accompanied by different cardiac rhythm disturbances (ischemic heart disease, diverse kinds of cardiomyopathy). The preparation was administered intravenously using 1-2 ampoules (0.5% solution of the preparation, 2 ml) and per os in tablets of 50 mg each (2-3 tablets a day during the first 2 days and 1-2 tablets a day during all following days). ECG characteristics, arterial pressure, heart beat rate and various parameters of hemodynamics were recorded.

[14] = effect on arterial pressure and breathing in narcotized cats and dogs; type: in vivo; conditions: intravenous, 0.05, 0.1, 0.5, 1 mg/kg
Excerpt: With the view to evaluate the effect of the preparation according to the present invention on arterial pressure and breathing, experiments have been carried out on narcotized cats and dogs.

CCN1CC2(OC(=O)c3ccccc3NC(C)=O)CCC(OC)C34C1C(CC23)C1(O)CC(OC)C2CC4C1(O)C2OC (stereo not shown) [lappaconitine hydrobromide]
arterial pressure and amplitude of the heart beat ([1]; 0.25 and 0.5 mg/kg): not changed
duration of antiarrhythmic effect ([1]; 0.25 and 0.5 mg/kg): 2 to 3 h
arrest of arrhythmia caused by electrical irritation ([1]; 0.25 and 0.5 mg/kg intravenously, 7 dogs and 10 cats): fully stops the origination of arrhythmia
onset of antiarrhythmic effect ([1]; after administration, 0.25 and 0.5 mg/kg): 3 to 7 min
activity relative to quinidine and novocainamide (times superior) ([1]; dog, in vivo): 40 times
teratogenicity [2]: not a potentially teratogenic substance
influence on amplitude of cardiac contractions (cardiac contractions): no influence on the amplitude of cardiac contractions
allergenic effect (allergenic effect): no allergenic effect
destructive changes of inner organs and tissues [3]: no destructive changes on the part of inner organs and tissues
prevention of lethal fibrillation of the heart [4]: fully prevents a lethal fibrillation of the heart
effect on diuresis [5]: no effect on diuresis of rats
protein and blood in urine ([5]; sulphanylic acid test and benzidine test): not detected
carcinogenic properties (carcinogenicity): no carcinogenic properties
animals with complete restoration of normal sinus rhythm (aconitine arrhythmia; 0.1 mg/kg intravenously): 50%
time to restoration of normal sinus rhythm (aconitine arrhythmia; 0.1 mg/kg, control arrhythmia lasts 120 minutes): 30 to 35 min
complete elimination of arrhythmia and restoration of correct sinus rhythm (aconitine arrhythmia; 0.3 to 0.5 mg/kg): complete elimination of arrhythmia and restoration of the correct sinus rhythm in all the animals
time to complete elimination of arrhythmia (aconitine arrhythmia; 0.3 to 0.5 mg/kg): 1 to 2 min
antiarrhythmic index (LD50/ED50) (aconitine arrhythmia; against background of developing aconitine arrhythmia): 59
antiinflammatory effect (antiinflammatory effect): pronounced antiinflammatory effect
anesthetic activity relative to tetracaine hydrochloride ([6]; 14 intact rabbits): matches tetracaine hydrochloride in its anesthetic activity
depth of anesthesia relative to tetracaine hydrochloride ([6]; rabbit, in vivo): inferior to tetracaine hydrochloride
duration of anesthetic effect relative to tetracaine hydrochloride ([6]; rabbit, in vivo): more than 6 times
structural changes in inner organs [7]: structural changes in the inner organs
effect on ECG ([8]; 1-2 mg/kg): increase the ranges PQ, QRS, QT, insignificantly R-R; the ripple S is deepened, the amplitude of the ripple T is uniformly increased
effect on myocardial conductivity and sinus node automatism ([8]; in vivo): lowers conductivity of the myocardium and, to a lesser extent, automatism of the sinus node
sublethal and lethal doses ([8]; intravenous): 4 to 6 mg/kg
effect on ECG ([8]; intravenous, 0.5 mg/kg): deceleration of the atrioventricular conductivity and a certain rarification of the rhythm
effect on ECG ([8]; intravenous, 4-6 mg/kg): growing inhibition of conductivity along the cardiac conducting system
effect on ECG ([8]; rats, intravenous, 0.05 to 0.25 mg/kg): does not cause in rats any substantial effect on the ECG
destructive changes of inner organs and tissues [9]: no destructive changes on the part of inner organs and tissues
effect on currents along calcium channels [10]: suppressed
animals in which development of arrhythmia is prevented [11]: 86.6%
duration of effect [12]: more than 2 hours
effect on arrhythmia induced by adrenalin [12]: cuts short the arrhythmia induced by adrenalin
effect on arterial pressure and on adrenalin hypertension [12]: does not affect the level of arterial pressure or the height of elevation of arterial pressure (hypertension) caused by adrenalin
time to maximum effect [12]: 5 to 10 min
efficiency by form ([13]; course treatment): more efficient for course treatment in tabletted forms
contraindications ([13]; human, in vivo): No contraindications
side effects (hypotension, changed heart beat rate, pulse, breathing) ([13]; patients): not observed
antiarrhythmic effect in patients ([13]; patients with stable form of ventricular and supraventricular extrasystole): pronounced antiarrhythmic effect
side effects in some cases ([13]; per os, intramuscular or intravenous): weakness or giddeness
time after which side effects pass ([13]; weakness or giddeness): 10 to 15 min
influence on arterial pressure and breathing [14]: did not exert any influence on the arterial pressure and breathing
